The results in this text go back to patent EP4001271A1, “CRYSTALLINE FORM OF 2-CHLORO-N-CYCLOPROPYL-5-[1-[2,6-DICHLORO-4-[1,2,2,2-TETRAFLUORO-1- (TRIFLUOROMETHYL)ETHYL]PHENYL]PYRAZOL-4-YL]-N-METHYL-PYRIDINE-3-CARBOXAMIDE” (Bayer Aktiengesellschaft, priority 2020, dated 2022).

Type in all cases: physicochemical
The nature of data set [1]: Quantitative solubility in solvents, stepwise solvent addition with visual check. The settings on record: read-out: solubility (concentration in solvent). As to the method:
The solubility of the active provided in Example 1 was further investigated in various solvents (entry 1 to 14 of Table 6). For the determination of the quantitative solubility, the respective solvent(-mixture) was added to approx. 40 mg of the solid, up to a maximum solvent addition of 2 mL in 50 - 200 µL steps. The vials were sealed between each addition of the solvent and the solubility was checked visually. […] Optically clear solutions were filtered via a so-called syringe prefilter and evaporated to dryness at different temperatures. Furthermore, cooling crystallizations were carried out. Undissolved substances were stirred for one week at room temperature in the respective anti-solvent. Table 5. Selection of solvents and anti-solvents
Based on the solvents and anti-solvents from Table 5, crystallization experiments, listed in Table 6, were carried out to obtain new solid forms of the active provided in Example 1. X-ray powder diffraction was used to assess whether a new phase has been formed.

Data set [2] can be described thus: DVS water sorption study (hydrate formation). The following applies: 0 to 90% RH and back in 10% increments. The protocol: The water sorption was determined using a DVS Resolution (London, UK) gravimetric sorption analyzer. The sample was dried at 0% relative humidity for 1000 minutes, after which the dry mass was recorded. Humidity was ramped in 10% increments to 90% RH and then back to 0% RH. The equilibrium criterion was set to a relative mass change of dm/dt=0.002%/minute.

Data set [3] can be described thus: Storage experiment, influence of humidity on stability of crystalline form A (HPLC purity, XRD form). The protocol:
(§1) For Powder X-Ray Diffraction (XRD) the samples were placed into standard glass capillaries (∅ = 0.7 mm). The measurements were performed at room temperature with a D8 Bruker Advance Diffractometer (Cu-Kα1 = 1.5406 Å, Johansson primary beam monochromator, position sensitive detector) in transmission mode with rotation of the sample. Data were collected in a two-theta range of 2 - 38°. The tube voltage and current were 40 kV and 40 mA, respectively. [table] [table] Storage experiments in different environments (25°C, 50°C, 25°C/85 % RH) were performed to investigate the influence of temperature and moisture on the stability of crystalline form A of the compound of formula (I). […] Two samples of crystalline form A were stored at 25°C/approx. 85 % rel. humidity (see Table 8). The samples were analyzed after 0, 1, 3, and 6 months by DSC, TGA, spectroscopy, X-ray powder diffraction, and HPLC (measurements for chemical stability). […] Exemplarily, the HPLC results are disclosed in Table 8. Table 8. Influence of humidity 0, 1, 3 and 6 months. Purity determined by HPLC. ACN denotes acetonitrile. *entry 16 of Table 6

Data set [4] is described as follows: Storage experiment, influence of temperature on stability of crystalline form A (HPLC purity, XRD form). The settings on record: for Purity / remaining at 672 h / remaining at 2016 h / remaining at 4032 h: HPLC, 1 mg/2mL ACN; for remaining at 672 h / remaining at 2016 h / remaining at 4032 h: solid storage. As to the method:
as §1, with “25°C and 50°C, respectively” for “25°C/approx. 85 % rel. humidity”, “7).” for “8).”, “7.” for “8.”, “temperature after four, 12,” for “humidity 0, 1, 3”, “24 weeks.” for “6 months.”

Where two headings read alike, the source gives them in different places.

For `CN(C(=O)c1cc(-c2cnn(-c3c(Cl)cc(C(F)(C(F)(F)F)C(F)(F)F)cc3Cl)c2)cnc1Cl)C1CC1` [compound of formula (I), 2-Chloro-N-cyclopropyl-5-[1-[2,6-dichloro-4-[1,2,2,2-tetrafluoro-1-(trifluoromethyl)ethyl]phenyl]pyrazol-4-yl]-N-methyl-pyridine-3-carboxamide], the solubility in data set [1] (3-methyl-1-butanol, organic solvent or mixture, 3-methyl-1-butanol, entry 9, evaporation 50°C) stood at 21 mg/mL; in data set [1] (acetonitrile, organic solvent or mixture, acetonitrile, entry 14, evaporation at ambient conditions) it was 30 mg/mL; in data set [1] (cyclohexane, organic solvent or mixture, cyclohexane (anti-solvent, not completely dissolved), entry 8, slurry 1 week) it was 19 mg/mL; in data set [1] (ethanol, organic solvent or mixture, EtOH, entry 5, evaporation at ambient conditions) it was 25 mg/mL; in data set [1] (heptane, organic solvent or mixture, heptane (anti-solvent, not completely dissolved), entry 7, slurry 1 week), 19 mg/mL; in data set [1] (isopropyl alcohol, organic solvent or mixture, isopropyl alcohol, entry 1, clear solution, evaporation at ambient conditions), 17 mg/mL. The solubility amounted to 268 mg/mL in data set [1] (isopropyl alcohol/propylene carbonate 65:35, organic solvent or mixture, isopropyl alcohol/propylene carbonate 65:35 %w/w, entry 3, slurry 1 week); 93 mg/mL in data set [1] (isopropyl alcohol/propylene carbonate 65:35, organic solvent or mixture, isopropyl alcohol/propylene carbonate 65:35 %w/w, entry 4, evaporation 50°C); 276 mg/mL in data set [1] (propylene carbonate, organic solvent or mixture, propylene carbonate, entry 2, slurry 1 week); 19 mg/mL in data set [1] (water, H2O (anti-solvent, not completely dissolved), entry 6, slurry 1 week).
As for `CN(C(=O)c1cc(-c2cnn(-c3c(Cl)cc(C(F)(C(F)(F)F)C(F)(F)F)cc3Cl)c2)cnc1Cl)C1CC1` [crystalline form A, 2-chloro-N-cyclopropyl-5-[1-[2,6-dichloro-4-[1,2,2,2-tetrafluoro-1-(trifluoromethyl)ethyl]phenyl]pyrazol-4-yl]-N-methyl-pyridine-3-carboxamide], in data set [2], the hydrate formation result was “does not form hydrates”. For the same compound, in data set [2], the hygroscopicity entry was “not hygroscopic”. Besides, the “mass increase over the entire area” value in data set [2] was “negligibly small”. The Purity in data set [3] (25 °C, 85% RH, 4 weeks, HPLC, 1 mg/2mL ACN, 40320 min, listed as 16*) is given as 99.10%; in data set [3] (25 °C, 85% RH, 12 weeks, HPLC, 1 mg/2mL ACN, 120960 min, listed as 16*) it was 99.25%; in data set [3] (25 °C, 85% RH, 24 weeks, HPLC, 1 mg/2mL ACN, 241920 min, listed as 16*), 99.75%; in data set [3] (no storage (initial value), HPLC, 1 mg/2mL ACN), 99.54%; in data set [4] (25 °C, 4 weeks, 40320 min, listed as 16*), 99.09%; in data set [4] (25 °C, 12 weeks, 120960 min, listed as 16*) it was 99.23%. Moreover, the Purity in data set [4] (50 °C, 12 weeks, 120960 min, listed as 16*) was determined as 99.25%; in data set [4] (50 °C, 24 weeks, 241920 min, listed as 16*) it was 99.34%; in data set [4] (no storage (initial value)), 99.54%. Further, the “phase transition on storage” value in data set [3] (25°C/85 % RH, after twelve weeks) is reported as “no phase transition”; in data set [4] (25°C and 50°C, after twelve weeks), “no phase transition”. Moreover, the “change in DSC, TGA, spectroscopy, X-ray powder diffraction and HPLC measurements on storage” value is “did not result in a significant change” in data set [3] (25°C/approx. 85 % rel. humidity, after 0, 1, 3 and 6 months); “did not result in a significant change” in data set [4] (25°C and 50°C, after 0, 1, 3 and 6 months). The fraction remaining (as a rule, the share of the starting amount still present when the sample was taken) at 672 h in data set [3] (solid storage, 85% rh, 25 °C, 4 weeks, HPLC, 1 mg/2mL ACN) is 99%; in data set [4] (25 °C, 4 weeks), 98.3%; in data set [4] (50 °C, 4 weeks) it was 99.1%. Moreover, the share remaining at 2016 h in data set [3] (solid storage, 85% rh, 25 °C, 12 weeks, HPLC, 1 mg/2mL ACN) came out at 99.3%; in data set [4] (25 °C, 12 weeks), 99.3%; in data set [4] (50 °C, 12 weeks) it was 99.5%. The amount remaining at 4032 h in data set [3] (solid storage, 85% rh, 25 °C, 24 weeks, HPLC, 1 mg/2mL ACN) was found to be 99.4%; in data set [4] (25 °C, 24 weeks), 99.4%; in data set [4] (50 °C, 24 weeks) it was 99.4%.
